These results are taken from patent US6506876B1, “LTA4 hydrolase inhibitor pharmaceutical compositions and methods of use” (G.D. Searle & Co., priority 1994, dated 2003).

Data set [1] concerns the target T1, recombinant human LTA4 hydrolase (rhLTA4H) (Homo sapiens, UniProt P09960).
T1 sequence (P09960 1-611): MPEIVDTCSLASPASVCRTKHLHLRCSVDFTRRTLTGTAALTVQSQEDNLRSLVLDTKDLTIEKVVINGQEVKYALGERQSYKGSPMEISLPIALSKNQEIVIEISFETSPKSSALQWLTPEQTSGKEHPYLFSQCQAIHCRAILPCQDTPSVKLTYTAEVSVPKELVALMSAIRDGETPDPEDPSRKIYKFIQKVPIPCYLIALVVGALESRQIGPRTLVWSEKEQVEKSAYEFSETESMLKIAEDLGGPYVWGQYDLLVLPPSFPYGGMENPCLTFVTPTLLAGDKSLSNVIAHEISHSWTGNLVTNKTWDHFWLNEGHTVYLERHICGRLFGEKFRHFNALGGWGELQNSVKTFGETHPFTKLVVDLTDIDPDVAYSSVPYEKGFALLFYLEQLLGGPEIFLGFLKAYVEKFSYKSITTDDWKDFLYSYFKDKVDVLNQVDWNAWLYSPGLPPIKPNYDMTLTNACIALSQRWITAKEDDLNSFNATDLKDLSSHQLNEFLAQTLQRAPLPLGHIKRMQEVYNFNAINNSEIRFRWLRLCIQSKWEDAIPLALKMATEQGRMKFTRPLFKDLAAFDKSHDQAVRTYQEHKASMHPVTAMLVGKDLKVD
The data set is described as follows: Recombinant human LTA4 hydrolase assay for LTA4 hydrolase inhibitor activity. The note with it: Recombinant Human LTA4 Hydrolase Assay IC50 LTA4H, recombinant hLTA4H.

The subject of data set [2] is LTB4 production in mouse blood (LTA4 hydrolase). Kind of data set: Ex vivo LTB4 production by calcium ionophore stimulated mouse blood after oral dosing. It is filed as in vivo. To be noted: read-out: Murine Ex Vivo LTB4 Inhibition % I LTB4. Summed up: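 Male outbred mice dosed by oral gavage, 10 mg/kg (some at 50 mg/kg) in PBS with 2% DMSO and 1% Tween 80; heparinised blood taken at 60 min, calcium ionophore-stimulated 10 minutes at 37° C. LTB4 and thromboxane by ELISA; % inhibition against vehicle-dosed animals.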

Data set [3] deals with LTB4 production in human whole blood (LTA4 hydrolase). The data set is described as follows: LTB4 production by calcium ionophore stimulated human blood. The format is cell-based. The note with it: Homo sapiens, human whole blood, A23187; read-out: Inhibition of Calcium Ionophore-Induced LTB4 Production in Human Blood IC50 HWB. As to the method:
LTB4 and Thromboxane Production by Calcium Ionophore Stimulated Human Blood for LTA4 Hydrolase Inhibitor Activity
One or more concentrations of the leukotriene A4 hydrolase inhibitor compounds being tested were prepared (diluted in DMSO) and 2 μl added and gently mixed with the diluted whole blood. After incubating for 15 minutes at 37° C. in a humidified incubator, calcium ionophore A23187 (Sigma Chemical Co., St. Louis, Mo.) was added to a final concentration of 20 mcg/ml and the incubation continued under the same conditions for an additional 10 minutes to allow LTB4 formation. The reaction was terminated by centrifugation (833 g, 10 minutes at 4° C.) and supernatant were analyzed for LTB4 and thromboxane by commercially available enzyme-linked immunoassays (Caymen Chemical Co., Ann Arbor, Mich.) according to the manufacturer's instructions. The IC50 of each test compound was determined from the amount of inhibition of LTB4 production as compared to an essentially identical assay in which no inhibitor compound was present.

Another data set deals with T2, LTA4 hydrolase (Homo sapiens, UniProt P09960).
T2 sequence (P09960 1-611): T1 sequence (P09960 1-611)
The note with it: background statement; cited from earlier work.

[4] abbreviates: mouse, oral gavage, 1 hour after administration of 10 mg/kg.

pIC50: −log10 of the molar value. Read-outs that look alike come from different tables or passages of the source.

On to `O=C(O)[C@@H]1CCCN1CCCOc1ccc(Cc2ccccc2)cc1` [Example 430], for which the melting point lay in the range of 165 to 169 °C. Further, the negative logarithm of the IC50 (pIC50) in data set [1] was 6.96. Moreover, the inhibition in vivo at 10 mg/kg in data set [2] (setting [4]) is 37%.
Compound `O=C(O)CCNCCCOc1ccc(Cc2ccccc2)cc1` [Example 431] gave a melting point of 165 to 167 °C. Besides, in data set [3], the pIC50 is 6.55. Moreover, the inhibition in vivo at 10 mg/kg in data set [2] (setting [4]) worked out at 71%.
As to `O=C(O)CCNCCCCOc1ccc(Cc2ccccc2)cc1` [Example 433], the melting point was 140 to 141 °C. Moreover, the inhibition in vivo at 10 mg/kg in data set [2] (setting [4]) came out at 71%.
For the compound `CN(CCCOc1ccc(Cc2ccccc2)cc1)CCC(=O)O` [Example 434], the melting point lay within 113 to 116 °C. The inhibition in vivo at 10 mg/kg in data set [2] (Mus musculus, po, 1 h) turned out to be 100%.
For the compound `NC(=O)NC1CCN(CCOc2ccc(Cc3ccccc3)cc2)C1` (stereo not drawn) [Example 453], the melting point lay in the range of 132 to 134 °C. The negative-log IC50 (pIC50) in data set [3] was 6.46. Further, the inhibition in vivo at 10 mg/kg in data set [2] (setting [4]) amounted to 92%.
Consider `C1=CC2CC1CN2CCOc1ccc(Cc2ccccc2)cc1` (stereo not drawn) [Example 497], for which the melting point fell in the range of 37 to 38 °C. For the same compound, in data set [1], the pIC50 was 6.70. In data set [2] (setting [4]), the inhibition in vivo at 10 mg/kg was 45%.
As for `CC(C)C[C@H](NC(=O)[C@@H](O)[C@H](N)Cc1ccccc1)C(=O)O` [bestatin], the “LTA4 hydrolase inhibitory activity” value on LTA4 hydrolase is on record as “exhibit LTA4 hydrolase inhibitory activity”.
With `C[C@H](CS)C(=O)N1CCC[C@H]1C(=O)O` [captopril], at LTA4 hydrolase, the “LTA4 hydrolase inhibitory activity” value is “exhibit LTA4 hydrolase inhibitory activity”.
